Experimental data reported in ChEMBL document CHEMBL1201862, “PubChem BioAssay data set” (2004).
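In this assay, cells in 96-well plates receive the compound at five concentrations for 48 hours. Endpoints are linearly interpolated between the surrounding concentrations. Abbreviation: GI50, concentration required for 50% inhibition of growth.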 The source made the active and inactive calls. Rule as the data show it: active = GI50 up to about 1.1 µM and inactive = higher.

Tests used:
Assay in all cases: NCI tumour cell line growth inhibition, 48 h
[1] = test system: SK-OV-3
[2] = test system: T47D
[3] = test system: HOP-92
[4] = test system: OVCAR-4
[5] = test system: SF-539
[6] = test system: SR
[7] = test system: MDA-MB-231
[8] = test system: SK-MEL-28
[9] = test system: SW-620
[10] = test system: NCI-H460
[11] = test system: UACC-257
[12] = test system: HL-60
[13] = test system: MCF7
[14] = test system: CCRF-CEM
[15] = test system: A549
[16] = test system: NCI-H226
[17] = test system: SF-268
[18] = test system: IGROV-1
[19] = test system: HT-29
[20] = test system: KM12

| Compound | GI50 [1] | GI50 [2] | GI50 [3] | GI50 [4] | GI50 [5] | GI50 [6] | GI50 [7] | GI50 [8] | GI50 [9] | GI50 [10] | GI50 [11] | GI50 [12] | GI50 [13] | GI50 [14] | GI50 [15] | GI50 [16] | GI50 [17] | GI50 [18] | GI50 [19] | GI50 [20] |
| --- | --- | --- | --- | --- | --- | --- | --- | --- | --- | --- | --- | --- | --- | --- | --- | --- | --- | --- | --- | --- |
| CC1=CC[C@@H]2[C@@H](CC[C@@]2(C)O)C(C)(C)[C@H]1CC[C@@H]1[C@@]2(C)CC[C@@H](O)C(C)(C)O[C@@H]2CC[C@]1(C)O | 35.9 µM (inactive) | 39.2 µM (inactive) | 12.5 µM (inactive) | 37.2 µM (inactive) | 19.6 µM (inactive) | 14.9 µM (inactive) | 17.5 µM (inactive) | 16.8 µM (inactive) | 31.8 µM (inactive) | 17.7 µM (inactive) | 25.6 µM (inactive) | 21.4 µM (inactive) | 31 µM (inactive) | > 10 µM (inactive) | 27.3 µM (inactive) | – | – | – | – | – |
| CC(C)(C)c1cc(-c2ccc(-c3cc(C(C)(C)C)c(O)c(C(C)(C)C)c3)cc2)cc(C(C)(C)C)c1O | > 100 µM (inactive) | > 100 µM (inactive) | > 100 µM (inactive) | > 100 µM (inactive) | > 100 µM (inactive) | > 100 µM (inactive) | > 100 µM (inactive) | > 100 µM (inactive) | > 100 µM (inactive) | – | > 100 µM (inactive) | > 100 µM (inactive) | > 100 µM (inactive) | – | > 100 µM (inactive) | > 100 µM (inactive) | > 100 µM (inactive) | > 100 µM (inactive) | > 100 µM (inactive) | > 100 µM (inactive) |
| CO/C=C/C=C(\C#N)C(=O)OC | > 100 µM (inactive) | > 100 µM (inactive) | > 100 µM (inactive) | > 100 µM (inactive) | > 100 µM (inactive) | > 100 µM (inactive) | > 100 µM (inactive) | > 100 µM (inactive) | > 100 µM (inactive) | > 100 µM (inactive) | > 100 µM (inactive) | – | > 100 µM (inactive) | 26.3 µM (inactive) | > 100 µM (inactive) | > 100 µM (inactive) | > 100 µM (inactive) | > 100 µM (inactive) | > 100 µM (inactive) | > 100 µM (inactive) |
| CN(C)/C=C/c1ccncc1 | > 100 µM (inactive) | > 100 µM (inactive) | > 100 µM (inactive) | > 100 µM (inactive) | > 100 µM (inactive) | > 100 µM (inactive) | > 100 µM (inactive) | > 100 µM (inactive) | > 100 µM (inactive) | > 100 µM (inactive) | > 100 µM (inactive) | – | > 100 µM (inactive) | 48.6 µM (inactive) | > 100 µM (inactive) | > 100 µM (inactive) | > 100 µM (inactive) | > 100 µM (inactive) | > 100 µM (inactive) | > 100 µM (inactive) |
| CC(C)(C)OC(=O)n1c(-c2ccccc2F)cc(=O)c2cc3c(cc21)OCO3 | 0.12 µM (active) | 16.8 µM (inactive) | 7.24 µM (inactive) | – | 0.0736 µM (active) | 0.0327 µM (active) | 3.68 µM (inactive) | > 100 µM (inactive) | 0.0596 µM (active) | 0.0656 µM (active) | – | 0.0451 µM (active) | 0.0413 µM (active) | 0.0638 µM (active) | 0.103 µM (active) | 0.0791 µM (active) | 0.191 µM (active) | – | 0.0497 µM (active) | 0.028 µM (active) |
| NS(=O)(=O)c1ccc(N=C2C(=O)Nc3ccccc32)cc1 | > 100 µM (inactive) | > 100 µM (inactive) | > 100 µM (inactive) | > 100 µM (inactive) | – | 67.8 µM (inactive) | > 100 µM (inactive) | > 100 µM (inactive) | > 100 µM (inactive) | > 100 µM (inactive) | > 100 µM (inactive) | > 100 µM (inactive) | 90.2 µM (inactive) | 55.8 µM (inactive) | > 100 µM (inactive) | > 100 µM (inactive) | > 100 µM (inactive) | > 100 µM (inactive) | > 100 µM (inactive) | > 100 µM (inactive) |
| CC(C)(C)c1ccc(-c2nc3ccc(Cl)cc3c(=O)o2)cc1 | 18.4 µM (inactive) | 20.5 µM (inactive) | 11.9 µM (inactive) | 20.5 µM (inactive) | 14.7 µM (inactive) | 16.4 µM (inactive) | 0.324 µM (active) | 21.3 µM (inactive) | 26.4 µM (inactive) | 26.2 µM (inactive) | 31.2 µM (inactive) | 19.4 µM (inactive) | 25 µM (inactive) | 14.8 µM (inactive) | 11.9 µM (inactive) | – | 22 µM (inactive) | 18.2 µM (inactive) | 23.1 µM (inactive) | 5.12 µM (inactive) |
| CNC(=S)/C(=N\Nc1[nH]cnc1C(N)=O)C(N)=S | 1.51 µM (inactive) | 11.6 µM (inactive) | 3 µM (inactive) | 4.17 µM (inactive) | 5.21 µM (inactive) | < 0.01 µM (active) | 2.12 µM (inactive) | 69.7 µM (inactive) | 3.78 µM (inactive) | 5.31 µM (inactive) | 9.62 µM (inactive) | – | 16.5 µM (inactive) | 0.689 µM (active) | > 84.1 µM (inactive) | 5.73 µM (inactive) | 3.18 µM (inactive) | 3.56 µM (inactive) | 16.1 µM (inactive) | 4.09 µM (inactive) |
| Cc1ccc(NC(=S)NNC(=O)c2cc(-c3ccccc3)nc3ccccc23)cc1 | 16.5 µM (inactive) | 3.21 µM (inactive) | 11.8 µM (inactive) | 17.9 µM (inactive) | 15.7 µM (inactive) | 3.18 µM (inactive) | 18.5 µM (inactive) | 5.96 µM (inactive) | 10.4 µM (inactive) | 18.7 µM (inactive) | 14.4 µM (inactive) | – | 11.2 µM (inactive) | – | 11.9 µM (inactive) | 18.7 µM (inactive) | 15.8 µM (inactive) | 15.2 µM (inactive) | 24 µM (inactive) | 11.1 µM (inactive) |
| CC1CC(NN(C)C)C2(C(N)=O)C(N)=NC(=O)C12C#N (stereo not given) | > 100 µM (inactive) | > 100 µM (inactive) | > 100 µM (inactive) | – | > 100 µM (inactive) | > 100 µM (inactive) | > 100 µM (inactive) | > 100 µM (inactive) | > 100 µM (inactive) | – | > 100 µM (inactive) | > 10 µM (inactive) | > 100 µM (inactive) | > 100 µM (inactive) | > 100 µM (inactive) | > 100 µM (inactive) | > 100 µM (inactive) | > 100 µM (inactive) | > 100 µM (inactive) | > 100 µM (inactive) |
| COC(=O)C1CCC(=O)N1CN(C(C)=O)c1cc(OC)ccc1OC (stereo not given) | > 100 µM (inactive) | > 100 µM (inactive) | > 100 µM (inactive) | > 100 µM (inactive) | > 100 µM (inactive) | 16.9 µM (inactive) | > 100 µM (inactive) | > 100 µM (inactive) | > 100 µM (inactive) | > 100 µM (inactive) | > 100 µM (inactive) | > 100 µM (inactive) | > 100 µM (inactive) | – | > 100 µM (inactive) | > 100 µM (inactive) | > 100 µM (inactive) | > 100 µM (inactive) | > 100 µM (inactive) | > 100 µM (inactive) |
